Assay results reported in patent US6737383B1, “Herbicidal oxadiazolidines” (priority 1999, dated 2004).

Tests used:
duck salad = assay: Test B flood test duck salad; type: in vivo, Heteranthera limosa
Procedure, shortened: (§1)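 Plants were grown to the 2-leaf stage before treatment with test chemical, then held in a greenhouse for twelve to sixteen days. Injury was visually rated against untreated controls on a 0–10 scale, where 0 is no effect and 10 is complete control.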

morningglory = assay: Test B pre/postemergence morningglory; type: in vivo, Ipomoea hederacea
Procedure, shortened: (§2)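 Response is a visual 0-to-10 score relative to untreated plants, where 0 means no effect and 10 means complete control, taken twelve to sixteen days after application. Treatments went onto soil at planting and onto foliage of 1- to 4-leaf plants, using a surfactant-containing non-phytotoxic solvent.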

wild oat = assay: Test B pre/postemergence wild oat; type: in vivo, Avena fatua
Procedure, shortened: as §2

bamyardgrass = assay: Test B flood test barnyardgrass; type: in vivo, Echinochloa crus-galli
Procedure, shortened: as §1

rice = assay: Test B flood test rice; type: in vivo, Oryza sativa
Procedure, shortened: as §1

sugar beet = assay: Test B pre/postemergence sugar beet; type: in vivo, Beta vulgaris
Procedure, shortened: as §2

purple nutsedge = assay: Test B pre/postemergence purple nutsedge; type: in vivo, Cyperus rotundus
Procedure, shortened: as §2

smallflower flatsedge = assay: Test B flood test smallflower flatsedge; type: in vivo, Cyperus difformis
Procedure, shortened: as §1

wheat = assay: Test B pre/postemergence wheat; type: in vivo, Triticum aestivum
Procedure, shortened: as §2

cocklebur = assay: Test B pre/postemergence cocklebur; type: in vivo, Xanthium strumarium
Procedure, shortened: as §2

crabgrass = assay: Test B pre/postemergence crabgrass; type: in vivo, Digitaria sanguinalis
Procedure, shortened: as §2

bedstraw = assay: Test B pre/postemergence bedstraw; type: in vivo, Galium aparine
Procedure, shortened: as §2

corn = assay: Test B pre/postemergence corn; type: in vivo, Zea mays
Procedure, shortened: as §2

surinam grass = assay: Test B pre/postemergence surinam grass; type: in vivo, Brachiaria decumbens
Procedure, shortened: as §2

velvetleaf = assay: Test B pre/postemergence velvetleaf; type: in vivo, Abutilon theophrasti
Procedure, shortened: as §2

blackgrass = assay: Test B pre/postemergence blackgrass; type: in vivo, Alopecurus myosuroides
Procedure, shortened: as §2

soybean = assay: Test B pre/postemergence soybean; type: in vivo, Glycine max
Procedure, shortened: as §2

pigweed = assay: Test B pre/postemergence pigweed; type: in vivo, Amaranthus retroflexus
Procedure, shortened: as §2

rape = assay: Test B pre/postemergence rape; type: in vivo, Brassica napus
Procedure, shortened: as §2

giant foxtail = assay: Test B pre/postemergence giant foxtail; type: in vivo, Setaria faberii
Procedure, shortened: as §2

[1] = Rate 62 g/ha, flood test species, Pre-emergence, visual evaluation after twelve to sixteen days
[2] = Rate 125 g/ha, under heading Pre-emergence, flood test species, visual evaluation after twelve to sixteen days
[3] = Rate 250 g/ha, Pre-emergence (flood test species), scale 0 to 10, 0 is no effect, 10 is complete control
[4] = Rate 500 g/ha, Pre-emergence section of Table B, 0 to 10 scale (0 no effect, 10 complete control)
[5] = Postemergence, Rate 125 g/ha, scale 0 to 10, 0 is no effect, 10 is complete control
[6] = Postemergence, Rate 500 g/ha, scale 0 to 10, 0 is no effect, 10 is complete control
[7] = Preemergence, Rate 62 g/ha, scale of 0 to 10 where 0 is no effect and 10 is complete control
[8] = Preemergence, Rate 125 g/ha, scale 0 to 10, 0 is no effect, 10 is complete control
[9] = Preemergence, Rate 500 g/ha, scale of 0 to 10 where 0 is no effect and 10 is complete control
[10] = Rate 62 g/ha, Postemergence, scale 0 to 10, 0 no effect, 10 complete control
[11] = Postemergence, Rate 250 g/ha, scale 0 to 10
[12] = Preemergence, Rate 250 g/ha, scale 0 to 10, 0 is no effect, 10 is complete control

## CC(C)N(C(=O)n1oc(=O)n(CC2=CCCCC2)c1=O)c1ccccc1 [Compound 496]
Duck salad; [1]
  Plant response rating, Ducksalad (0 to 10 scale, 0 is no effect, 10 is complete control): 0
Duck salad; [2]
  Ducksalad plant response rating (0 to 10 scale, 0 is no effect, 10 is complete control): 0
Duck salad; [3]
  Ducksalad plant response rating: 0
Duck salad; [4]
  Ducksalad plant response rating: 0
morningglory; [5]
  Morningglory plant response rating: 8
morningglory; [6]
  Plant response rating, Morningglory: 8
morningglory; [7]
  Plant response rating, Morningglory: 0
morningglory; [8]
  Morningglory plant response rating: 0
morningglory; [9]
  Morningglory plant response rating: 0
morningglory; [10]
  Morningglory plant response rating: 8
Wild oat; [5]
  Wild oats plant response rating: 0
Wild oat; [6]
  Plant response rating, Wild oats: 2
Wild oat; [7]
  Plant response rating, Wild oats: 0
Wild oat; [8]
  Wild oats plant response rating: 0
Wild oat; [9]
  Wild oats plant response rating: 0
Wild oat; [10]
  Wild oats plant response rating: 0
bamyardgrass; [1]
  Plant response rating, Barnyardgrass (0 to 10 scale, 0 is no effect, 10 is complete control): 0
bamyardgrass; [2]
  Barnyardgrass plant response rating (0 to 10 scale, 0 is no effect, 10 is complete control): 0
bamyardgrass; [3]
  Barnyardgrass plant response rating: 0
bamyardgrass; [4]
  Barnyardgrass plant response rating: 0
rice; [1]
  Plant response rating, Rice (0 to 10 scale, 0 is no effect, 10 is complete control): 0
rice; [2]
  Rice plant response rating (0 to 10 scale, 0 is no effect, 10 is complete control): 0
rice; [3]
  Rice plant response rating: 0
rice; [4]
  Rice plant response rating: 0
Sugar beet; [5]
  Sugarbeets plant response rating: 0
Sugar beet; [6]
  Plant response rating, Sugarbeets: 0
Sugar beet; [7]
  Plant response rating, Sugarbeets: 0
Sugar beet; [8]
  Sugarbeets plant response rating: 0
Sugar beet; [9]
  Sugarbeets plant response rating: 0
Sugar beet; [10]
  Sugarbeets plant response rating: 0
Purple nutsedge; [5]
  Nutsedge plant response rating: 0
Purple nutsedge; [6]
  Plant response rating, Nutsedge: 0
Purple nutsedge; [7]
  Plant response rating, Nutsedge: 0
Purple nutsedge; [8]
  Nutsedge plant response rating: 0
Purple nutsedge; [9]
  Nutsedge plant response rating: 0
Purple nutsedge; [10]
  Nutsedge plant response rating: 0
Smallflower flatsedge; [1]
  Plant response rating, S. Flatsedge (0 to 10 scale, 0 is no effect, 10 is complete control): 0
Smallflower flatsedge; [2]
  S. Flatsedge plant response rating (0 to 10 scale, 0 is no effect, 10 is complete control): 0
Smallflower flatsedge; [3]
  S. Flatsedge plant response rating: 0
Smallflower flatsedge; [4]
  S. Flatsedge plant response rating: 0
wheat; [5]
  Wheat plant response rating: 0
wheat; [6]
  Plant response rating, Wheat: 3
wheat; [7]
  Plant response rating, Wheat: 0
wheat; [8]
  Wheat plant response rating: 0
wheat; [9]
  Wheat plant response rating: 0
wheat; [10]
  Wheat plant response rating: 0
cocklebur; [5]
  Cocklebur plant response rating: 0
cocklebur; [11]
  Cocklebur plant response rating: 0
cocklebur; [6]
  Plant response rating, Cocklebur: 1
cocklebur; [7]
  Plant response rating, Cocklebur: 0
cocklebur; [8]
  Cocklebur plant response rating: 0
cocklebur; [12]
  Cocklebur plant response rating: 0
cocklebur; [9]
  Cocklebur plant response rating: 0
cocklebur; [10]
  Cocklebur plant response rating: 0
crabgrass; [5]
  Crabgrass plant response rating: 0
crabgrass; [11]
  Crabgrass plant response rating: 0
crabgrass; [6]
  Plant response rating, Crabgrass: 2
crabgrass; [7]
  Plant response rating, Crabgrass: 0
crabgrass; [8]
  Crabgrass plant response rating: 4
crabgrass; [9]
  Crabgrass plant response rating: 9
crabgrass; [10]
  Crabgrass plant response rating: 0
bedstraw; [11]
  Bedstraw plant response rating: 0
bedstraw; [7]
  Plant response rating, Bedstraw: 0
bedstraw; [8]
  Bedstraw plant response rating: 0
corn; [5]
  Corn plant response rating: 0
corn; [11]
  Corn plant response rating: 0
corn; [6]
  Plant response rating, Corn: 0
corn; [7]
  Plant response rating, Corn: 0
corn; [8]
  Corn plant response rating: 0
corn; [9]
  Corn plant response rating: 0
corn; [10]
  Corn plant response rating: 0
Surinam grass; [5]
  B. signalgrass plant response rating: 0
Surinam grass; Postemergence, Rate 250 g/ha, scale 0 to 10, 0 no effect, 10 complete control
  B. signalgrass plant response rating: 0
Surinam grass; [6]
  Plant response rating, B. signalgrass: 4
Surinam grass; [7]
  Plant response rating, B. signalgrass: 0
Surinam grass; [8]
  B. signalgrass plant response rating: 0
Surinam grass; [12]
  B. signalgrass plant response rating: 1
Surinam grass; Preemergence, Rate 500 g/ha, scale 0 to 10, 0 is no effect, 10 is complete control
  B. signalgrass plant response rating: 8
Surinam grass; [10]
  B. signalgrass plant response rating: 0
velvetleaf; [5]
  Velvetleaf plant response rating: 0
velvetleaf; [6]
  Plant response rating, Velvetleaf: 0
velvetleaf; [7]
  Plant response rating, Velvetleaf: 0
velvetleaf; [8]
  Velvetleaf plant response rating: 0
velvetleaf; [9]
  Velvetleaf plant response rating: 0
velvetleaf; [10]
  Velvetleaf plant response rating: 0
blackgrass; [5]
  Blackgrass plant response rating: 3
blackgrass; [11]
  Blackgrass plant response rating: 3
blackgrass; [6]
  Plant response rating, Blackgrass: 5
blackgrass; [7]
  Plant response rating, Blackgrass: 0
blackgrass; [8]
  Blackgrass plant response rating: 0
blackgrass; [12]
  Blackgrass plant response rating: 2
blackgrass; [9]
  Blackgrass plant response rating: 2
blackgrass; [10]
  Blackgrass plant response rating: 2
soybean; [5]
  Soybean plant response rating: 3
soybean; [6]
  Plant response rating, Soybean: 3
soybean; [7]
  Plant response rating, Soybean: 0
soybean; [8]
  Soybean plant response rating: 0
soybean; [9]
  Soybean plant response rating: 0
soybean; [10]
  Soybean plant response rating: 2
pigweed; [5]
  Redroot pigweed plant response rating: 0
pigweed; [6]
  Plant response rating, Redroot pigweed: 3
pigweed; [7]
  Plant response rating, Redroot pigweed: 0
pigweed; [8]
  Redroot pigweed plant response rating: 0
pigweed; [9]
  Redroot pigweed plant response rating: 8
pigweed; [10]
  Redroot pigweed plant response rating: 0
rape; [5]
  Rape plant response rating: 0
rape; [6]
  Plant response rating, Rape: 0
rape; [7]
  Plant response rating, Rape: 0
rape; [8]
  Rape plant response rating: 0
rape; [9]
  Rape plant response rating: 0
rape; [10]
  Rape plant response rating: 0
Giant foxtail; [5]
  Giant foxtail plant response rating: 0
Giant foxtail; [6]
  Plant response rating, Giant foxtail: 0
Giant foxtail; [7]
  Plant response rating, Giant foxtail: 2
Giant foxtail; [8]
  Giant foxtail plant response rating: 8
Giant foxtail; [9]
  Giant foxtail plant response rating: 9
Giant foxtail; [10]
  Giant foxtail plant response rating: 0
